The values below come from ChEMBL document CHEMBL1155502, “Modulation of 11beta-hydroxysteroid dehydrogenase type 1 activity by 1,5-substituted 1H-tetrazoles” (Bioorg Med Chem Lett, 2010).

This data set is described as follows: Metabolic stability in human liver microsomes assessed as compound remaining after 30 mins. It is filed as ADME, Microsome. The settings on record: read-out: Stability. A general note: Microsomes from liver hold many membrane-bound enzymes, among them those of drug oxidation.
For `O=C(CCc1nnnn1-c1ccccc1)C1CCCCC1`, the remaining at 0.5 h is 11%. For `O=C(CCn1nnnc1-c1ccccc1Cl)c1ccccc1` the value was 5%; for `O=C(CCc1nnnn1C1CCc2ccccc21)c1ccccc1` (configuration not stated), 1%; for `COc1ccc(-c2nnnn2CCC(=O)c2ccccc2)cc1`, 18%. For `O=C(CCn1nnnc1-c1ncccn1)c1ccccc1` the value was 53%. Next, `Cc1ccc(-n2nnnc2CCC(=O)c2ccccc2)cc1`: 2%; `CC(C)(C)C(=O)C[S+]([O-])c1nnnn1-c1ccccc1` (configuration not stated): 25%; `Cc1ccccc1-n1nnnc1CCC(=O)c1ccccc1`: 22%.

Consider `COc1cccc(C(=O)CCc2nnnn2-c2ccccc2)c1`, for which the remaining at 0.5 h is 14%. Next, `O=C(CCn1nnnc1-c1ccsc1)c1ccccc1`: 6%; `COc1ccccc1-n1nnnc1CCC(=O)c1ccccc1`: 42%. Consider `O=C(CCc1nnnn1-c1ccc(Cl)cc1)c1ccccc1`, for which the remaining at 0.5 h turned out to be 34%. Next, `O=C(CCn1nnnc1-c1ccccc1)c1ccccc1`: 29%; `O=C(COc1nnnn1-c1ccccc1)c1ccccc1`: 4%; `O=C(CCc1nnnn1Cc1ccccc1)c1ccccc1`: 33%.

In the case of `Cc1cccc(-n2nnnc2CCC(=O)c2ccccc2)c1`, the remaining at 0.5 h worked out at 2%. Next, `O=C(CCc1nnnn1-c1ccccc1)c1cccc(F)c1`: 21%; `O=C(CCn1nnnc1-c1cccc(Cl)c1)c1ccccc1`: 20%; `CC(C)(C)C(=O)CS(=O)(=O)c1nnnn1-c1ccccc1`: 4%. Turning to `COc1ccc(-n2nnnc2CCC(=O)c2ccccc2)cc1`, the remaining at 0.5 h amounted to 12%. `COc1cccc(-n2nnnc2CCC(=O)c2ccccc2)c1`: the remaining at 0.5 h turned out to be 6%. For `O=C(CCn1nnnc1-c1cnccn1)c1ccccc1` the value was 31%. For `O=C(CCc1nnnn1-c1cccnc1)c1ccccc1` the value was 81%.

On to `O=C(CCc1nnnn1C1CCCc2ccccc21)c1ccccc1` (configuration not stated), for which the remaining at 0.5 h is 7%. Next, `N#Cc1ccc(-n2nnnc2CCC(=O)c2ccccc2)cc1`: 37%; `O=C(CCc1nnnn1-c1ccccc1)c1ccccc1`: 88%; `O=C(CCn1nnnc1-c1ccc2c(c1)OCO2)c1ccccc1`: 11%. For `COc1ccccc1-c1nnnn1CCC(=O)c1ccccc1` the value was 9%. In the case of `O=C(CCc1nnnn1-c1ccccc1)c1cccc(Cl)c1`, the remaining at 0.5 h was 8%. `O=C(CCc1nnnn1C1CCCCC1)c1ccccc1`: the remaining at 0.5 h worked out at 14%.

As for `O=C(CCc1nnnn1C1CC1)c1ccccc1`, the remaining at 0.5 h is 73%. For `O=C(CCn1nnnc1-c1cccnc1)c1ccccc1` the value was 81%.
